Measurements taken from patent US10442778B2, “N1-phenylpropane-1,2-diamine compounds with selective activity in voltage-gated sodium channels” (Merck Sharp & Dohme Corp., priority 2016, dated 2019).

What was measured:
[1] = target: T1, human Nav1.7 channels stably expressed in HEK 293 cells (Homo sapiens, UniProt Q15858); assay: IonWorks Quattro automated patch-clamp, inactivated state block of Nav1.7; type: cell-based; settings: double-pulse protocol, read-out: potency for the Nav 1.7 sodium ion channel (as measured by IonWorks)
T1 construct: expressed in transfected cells; host or cells: HEK 293
T1 sequence (Q15858 whole entry): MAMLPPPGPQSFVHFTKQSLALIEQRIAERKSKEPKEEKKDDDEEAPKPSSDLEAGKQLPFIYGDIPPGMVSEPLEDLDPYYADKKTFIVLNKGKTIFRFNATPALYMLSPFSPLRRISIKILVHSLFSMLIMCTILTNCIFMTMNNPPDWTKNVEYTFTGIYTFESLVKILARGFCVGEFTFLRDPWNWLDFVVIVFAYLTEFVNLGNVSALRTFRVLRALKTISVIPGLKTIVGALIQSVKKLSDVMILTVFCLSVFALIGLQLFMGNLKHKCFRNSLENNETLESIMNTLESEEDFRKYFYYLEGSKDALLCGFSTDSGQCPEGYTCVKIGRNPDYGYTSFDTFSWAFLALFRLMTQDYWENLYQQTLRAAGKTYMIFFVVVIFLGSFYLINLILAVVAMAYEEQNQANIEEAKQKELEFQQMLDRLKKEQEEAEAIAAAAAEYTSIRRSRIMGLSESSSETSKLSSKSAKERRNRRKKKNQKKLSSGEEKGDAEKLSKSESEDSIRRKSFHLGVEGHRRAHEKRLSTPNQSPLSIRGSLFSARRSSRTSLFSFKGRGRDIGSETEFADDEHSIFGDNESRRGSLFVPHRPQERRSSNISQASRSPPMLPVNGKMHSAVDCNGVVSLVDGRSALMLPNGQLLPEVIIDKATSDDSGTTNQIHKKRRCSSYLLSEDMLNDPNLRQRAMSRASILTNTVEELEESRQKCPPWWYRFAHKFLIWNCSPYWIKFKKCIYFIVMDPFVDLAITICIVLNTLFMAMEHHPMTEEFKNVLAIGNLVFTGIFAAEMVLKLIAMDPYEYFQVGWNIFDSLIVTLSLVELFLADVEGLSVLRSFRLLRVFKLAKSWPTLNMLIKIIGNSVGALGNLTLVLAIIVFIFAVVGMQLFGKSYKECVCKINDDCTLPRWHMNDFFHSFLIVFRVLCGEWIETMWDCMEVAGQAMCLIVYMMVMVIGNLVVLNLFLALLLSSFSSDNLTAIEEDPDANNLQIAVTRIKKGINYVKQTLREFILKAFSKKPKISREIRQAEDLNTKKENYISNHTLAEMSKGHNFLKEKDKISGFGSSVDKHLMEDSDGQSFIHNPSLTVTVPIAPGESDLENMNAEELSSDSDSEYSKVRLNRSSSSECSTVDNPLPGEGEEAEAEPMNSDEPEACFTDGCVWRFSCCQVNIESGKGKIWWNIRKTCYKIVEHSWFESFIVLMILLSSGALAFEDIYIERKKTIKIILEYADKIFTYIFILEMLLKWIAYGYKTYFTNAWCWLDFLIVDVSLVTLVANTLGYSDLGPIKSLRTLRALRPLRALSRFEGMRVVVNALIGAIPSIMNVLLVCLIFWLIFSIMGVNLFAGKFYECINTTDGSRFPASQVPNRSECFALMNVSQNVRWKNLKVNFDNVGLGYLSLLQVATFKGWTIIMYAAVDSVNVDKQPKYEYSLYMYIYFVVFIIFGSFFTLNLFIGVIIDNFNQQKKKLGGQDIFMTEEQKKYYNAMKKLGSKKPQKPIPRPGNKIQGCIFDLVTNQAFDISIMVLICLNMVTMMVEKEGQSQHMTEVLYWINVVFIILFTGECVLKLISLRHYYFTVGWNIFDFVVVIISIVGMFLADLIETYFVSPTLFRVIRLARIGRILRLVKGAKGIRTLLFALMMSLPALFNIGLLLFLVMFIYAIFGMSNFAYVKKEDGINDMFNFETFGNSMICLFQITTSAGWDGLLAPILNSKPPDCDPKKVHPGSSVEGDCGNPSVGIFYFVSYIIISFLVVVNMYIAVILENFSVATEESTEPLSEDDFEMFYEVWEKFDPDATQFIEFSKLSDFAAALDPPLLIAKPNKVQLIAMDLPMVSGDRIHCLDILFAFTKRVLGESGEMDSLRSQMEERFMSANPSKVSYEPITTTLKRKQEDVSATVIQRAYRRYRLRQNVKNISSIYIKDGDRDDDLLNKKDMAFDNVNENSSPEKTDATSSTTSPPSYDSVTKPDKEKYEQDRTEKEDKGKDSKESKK
Experimental: (§1) Compounds were tested on human Nav1.7 and Nav1.5 channels stably expressed in HEK 293 cells. […] Cells were sealed on a planar substrate using the Population Patch Plate (PPC) technology. Electrical access was obtained using both nystatin and amphotericin. A double-pulse protocol was used for the determination of IC50 values for inactivated state block. Nav1.7 and Nav1.5 expressing cells were voltage clamped at −100 mV and −110 mV, respectively. A depolarizing prepulse to −10 mV (Nav1.7) or −30 mV (Nav1.5) for 1000 ms followed by a 10 ms repolarization to −100 mV (Nav1.7) or −110 mV (Nav1.5) was given to generate fractional channel inactivation of ˜50%, followed by a 10 ms test pulse to −10 mV (Nav1.7) or −30 mV (Nav1.5) to measure peak current in control conditions and after compound addition. The following recording solutions were used (mM). External: 150 NaCl, 2 CaCl2, 5 KCl, 1 Mg Cl2, 10 HEPES, 12 Dextrose; internal: 120 CsF, 30 CsCl, 10 EGTA, 5 HEPES, 5 NaF, 2 MgCl2.
(§2) For all electrophysiology experiments, offline analysis was used to determine percent inhibition as a function of drug concentration. IC50 values were determined by fitting to the Hill equation.

[2] = target: T2, human Nav1.5 channels stably expressed in HEK 293 cells (Homo sapiens, UniProt Q14524); assay: IonWorks Quattro automated patch-clamp, inactivated state block of Nav1.5 (selectivity); type: cell-based; settings: IonWorks measurement, both channels in HEK 293 cells
T2 construct: expressed in transfected cells; host or cells: HEK 293
T2 sequence (Q14524 whole entry): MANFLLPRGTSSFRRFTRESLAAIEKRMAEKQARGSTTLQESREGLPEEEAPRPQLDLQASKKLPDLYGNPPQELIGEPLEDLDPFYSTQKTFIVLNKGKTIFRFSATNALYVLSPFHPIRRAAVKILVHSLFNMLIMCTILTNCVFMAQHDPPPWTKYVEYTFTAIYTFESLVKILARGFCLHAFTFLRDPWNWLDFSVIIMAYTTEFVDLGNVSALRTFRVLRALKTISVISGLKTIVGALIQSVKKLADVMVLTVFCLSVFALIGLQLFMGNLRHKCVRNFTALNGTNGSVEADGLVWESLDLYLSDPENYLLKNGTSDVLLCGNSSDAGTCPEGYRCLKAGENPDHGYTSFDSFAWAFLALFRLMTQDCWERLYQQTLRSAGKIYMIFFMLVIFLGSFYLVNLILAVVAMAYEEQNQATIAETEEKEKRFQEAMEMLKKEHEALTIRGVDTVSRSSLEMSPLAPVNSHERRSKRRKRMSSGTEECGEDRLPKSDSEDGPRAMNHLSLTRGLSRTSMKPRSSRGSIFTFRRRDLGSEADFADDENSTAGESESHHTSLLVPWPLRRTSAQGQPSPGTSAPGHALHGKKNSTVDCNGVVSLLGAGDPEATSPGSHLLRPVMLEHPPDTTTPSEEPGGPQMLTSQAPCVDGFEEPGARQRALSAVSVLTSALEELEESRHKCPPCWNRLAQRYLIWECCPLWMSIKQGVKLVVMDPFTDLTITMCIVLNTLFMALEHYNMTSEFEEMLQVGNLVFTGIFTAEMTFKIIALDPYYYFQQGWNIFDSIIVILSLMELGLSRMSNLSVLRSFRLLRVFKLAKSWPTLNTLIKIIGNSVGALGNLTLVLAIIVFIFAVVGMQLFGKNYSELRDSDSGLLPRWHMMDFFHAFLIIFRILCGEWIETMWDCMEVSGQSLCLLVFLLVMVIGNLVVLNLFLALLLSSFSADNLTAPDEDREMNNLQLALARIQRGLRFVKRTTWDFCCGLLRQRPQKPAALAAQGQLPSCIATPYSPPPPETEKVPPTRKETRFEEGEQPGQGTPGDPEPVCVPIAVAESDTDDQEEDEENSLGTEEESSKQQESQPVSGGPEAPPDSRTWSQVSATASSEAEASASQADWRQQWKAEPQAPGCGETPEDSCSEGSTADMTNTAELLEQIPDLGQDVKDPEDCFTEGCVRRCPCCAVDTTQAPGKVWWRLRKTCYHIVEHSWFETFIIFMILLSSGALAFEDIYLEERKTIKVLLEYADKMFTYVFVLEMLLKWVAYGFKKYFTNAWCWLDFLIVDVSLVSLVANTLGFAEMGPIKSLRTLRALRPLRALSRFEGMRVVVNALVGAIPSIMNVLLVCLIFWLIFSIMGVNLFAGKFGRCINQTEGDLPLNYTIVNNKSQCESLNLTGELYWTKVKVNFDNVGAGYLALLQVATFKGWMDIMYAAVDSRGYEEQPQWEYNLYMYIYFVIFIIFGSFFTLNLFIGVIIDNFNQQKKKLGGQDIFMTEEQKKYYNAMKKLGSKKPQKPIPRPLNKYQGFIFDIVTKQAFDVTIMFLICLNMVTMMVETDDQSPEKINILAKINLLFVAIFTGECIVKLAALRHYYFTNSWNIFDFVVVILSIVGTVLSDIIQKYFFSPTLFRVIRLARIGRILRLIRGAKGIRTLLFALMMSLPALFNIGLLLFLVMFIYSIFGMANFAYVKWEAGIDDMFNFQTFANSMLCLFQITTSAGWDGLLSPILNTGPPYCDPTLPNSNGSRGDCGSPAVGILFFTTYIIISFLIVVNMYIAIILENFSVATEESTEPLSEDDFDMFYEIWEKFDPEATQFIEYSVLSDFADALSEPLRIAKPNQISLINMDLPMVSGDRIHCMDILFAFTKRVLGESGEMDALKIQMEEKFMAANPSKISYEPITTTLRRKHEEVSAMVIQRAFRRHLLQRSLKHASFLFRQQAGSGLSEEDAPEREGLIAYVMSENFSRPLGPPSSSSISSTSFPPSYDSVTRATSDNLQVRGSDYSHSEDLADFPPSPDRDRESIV
Experimental: as §1, §2

IC50 [1] [µM]	SMILES	ratio of Nav1.7 potency:Nav 1.5 potency [2]
0.061	CN[C@H](CNc1cc(F)c(S(=O)(=O)Nc2nccs2)cc1Cl)Cc1ccc(F)cc1 (single isomer, unassigned) [Ex1-12]	> 541
0.11	CN[C@H](CNc1cc(F)c(S(=O)(=O)Nc2ncc(F)s2)cc1Cl)CC1CCCC1 (single isomer, unassigned) [Ex3-11]	–
2	CN[C@H](CNc1cc(F)c(S(=O)(=O)Nc2ncc(F)s2)cc1Cl)CC1(CF)CC1 (single isomer, unassigned) [Ex5-4]	> 14
0.2	CN[C@H](CNc1cc(F)c(S(=O)(=O)Nc2nccs2)cc1Cl)Cc1ccccc1 [Ex1-7, (S)-5-chloro-2-fluoro-4-((2-(methylamino)-3-phenylpropyl)amino)-N-(thiazol-2-yl)benzenesulfonamide]	–
0.015	CN[C@H](CNc1cc(F)c(S(=O)(=O)Nc2nccs2)cc1Cl)CC1CCCCC1 [Ex1-18, (S)-5-chloro-4-((3-cyclohexyl-2-(methylamino)propyl)amino)-2-fluoro-N-(thiazol-2-yl)benzenesulfonamide]	> 2200
0.024	CN[C@H](CNc1cc(F)c(S(=O)(=O)Nc2nccs2)cc1Cl)Cc1cccc(Cl)c1 [Ex1-19, (S)-5-chloro-4-((3-(3-chlorophenyl)-2-(methyl-amino)propyl)-amino)-2-fluoro-N-(thiazol-2-yl)-benzenesulfonamide]	> 1375
0.28	CN[C@H](CNc1cc(F)c(S(=O)(=O)Nc2nccs2)cc1Cl)Cc1ccc(C)cc1 [Ex1-20, (S)-5-chloro-2-fluoro-4-((2-(methylamino)-3-(p-tolyl)propyl)amino)-N-(thiazol-2-yl)-benzenesulfonamide]	> 118
0.2	CN[C@@H](CCc1ccccc1)CNc1cc(F)c(S(=O)(=O)Nc2nccs2)cc1Cl [Ex1-21, (S)-5-chloro-2-fluoro-4-((2-(methylamino)-4-phenylbutyl)amino)-N-(thiazol-2-yl)-benzenesulfonamide]	–
0.14	CN[C@@H](CCc1ccccc1)CNc1cc(F)c(S(=O)(=O)Nc2ncc(F)s2)cc1Cl [Ex1-22, (S)-5-chloro-2-fluoro-N-(5-fluorothiazol-2-yl)-4-((2-(methylamino)-4-phenylbutyl)amino)-benzenesulfonamide]	> 236
0.036	CN[C@H](CNc1cc(F)c(S(=O)(=O)Nc2nccs2)cc1Cl)Cc1cccc(Br)c1 [Ex1-23, (S)-4-((3-(3-bromo-phenyl)-2-(methylamino)-propyl)amino)-5-chloro-2-fluoro-N-(thiazol-2-yl)-benzenesulfonamide]	> 917
0.44	CN[C@H](CNc1cc(F)c(S(=O)(=O)Nc2nccs2)cc1Cl)Cc1ccccc1Br [Ex1-24, (S)-4-((3-(2-bromo-phenyl)-2-(methylamino)-propyl)amino)-5-chloro-2-fluoro-N-(thiazol-2-yl)-benzenesulfonamide]	> 75
0.11	CN[C@H](CNc1cc(F)c(S(=O)(=O)Nc2nccs2)cc1Cl)Cc1ccc(Br)cc1 [Ex1-25, (S)-4-((3-(4-bromo-phenyl)-2-(methylamino)-propyl)amino)-5-chloro-2-fluoro-N-(thiazol-2-yl)-benzenesulfonamide]	–
0.2	CN[C@H](CNc1cc(F)c(S(=O)(=O)Nc2ncns2)cc1Cl)Cc1ccccc1 [Ex1-26, (S)-5-chloro-2-fluoro-4-((2-(methylamino)-3-phenylpropyl)amino)-N-(1,2,4-thiadiazol-5-yl)-benzenesulfonamide]	–
0.19	CN[C@H](CNc1cc(F)c(S(=O)(=O)Nc2ncc(F)s2)cc1Cl)Cc1ccccc1 [Ex1-27, (S)-5-chloro-2-fluoro-N-(5-fluorothiazol-2-yl)-4-((2-(methylamino)-3-phenylpropyl)amino)-benzenesulfonamide]	> 174
0.032	CN[C@H](CNc1cc(F)c(S(=O)(=O)Nc2nccs2)cc1Cl)Cc1cccc(F)c1 [Ex1-28, (S)-5-chloro-2-fluoro-4-((3-(3-fluorophenyl)-2-(methylamino)-propyl)-amino)-N-(thiazol-2-yl)-benzenesulfonamide]	> 1031
0.31	CN[C@H](CNc1cc(F)c(S(=O)(=O)Nc2nccs2)cc1Cl)Cc1ccccc1F [Ex1-29, (S)-5-chloro-2-fluoro-4-((3-(2-fluorophenyl)-2-(methylamino)-propyl)-amino)-N-(thiazol-2-yl)-benzenesulfonamide]	> 106
0.16	CN[C@H](CNc1cc(F)c(S(=O)(=O)Nc2nccs2)cc1Cl)Cc1cc(F)cc(F)c1 [Ex1-30, (S)-5-chloro-4-((3-(3,5-difluorophenyl)-2-(methyl-amino)-propyl)amino)-2-fluoro-N-(thiazol-2-yl)-benzenesulfonamide]	> 206
0.03	CN[C@H](CNc1cc(F)c(S(=O)(=O)Nc2nccs2)cc1Cl)Cc1ccc(F)c(F)c1 [Ex1-31, (S)-5-chloro-4-((3-(3,4-difluorophenyl)-2-(methyl-amino)propyl)amino)-2-fluoro-N-(thiazol-2-yl)-benzenesulfonamide]	> 1100
0.17	CN[C@H](CNc1cc(F)c(S(=O)(=O)Nc2nccs2)cc1Cl)Cc1ccc(F)cc1Br [Ex1-32, (S)-4-((3-(2-bromo-4-fluorophenyl)-2-(methyl-amino)propyl)-amino)-5-chloro-2-fluoro-N-(thiazol-2-yl)-benzenesulfonamide]	–
0.13	CN[C@H](CNc1cc(F)c(S(=O)(=O)Nc2nccs2)cc1Cl)Cc1cccc(F)c1Br [Ex1-33, (S)-4-((3-(2-bromo-3-fluorophenyl)-2-(methyl-amino)propyl)-amino)-5-chloro-2-fluoro-N-(thiazol-2-yl)-benzenesulfonamide]	> 254
0.033	CN[C@H](CNc1cc(F)c(S(=O)(=O)Nc2nccs2)cc1Cl)Cc1ccc(Cl)cc1 [Ex1-34, (S)-5-chloro-4-((3-(4-chlorophenyl)-2-(methyl-amino)propyl)amino)-2-fluoro-N-(thiazol-2-yl)-benzenesulfonamide]	> 1000
1.03	CN[C@H](CNc1cc(F)c(S(=O)(=O)Nc2ncc(F)s2)cc1Cl)CC1CCC1 [Ex2-12, (S)-5-chloro-4-((3-cyclobutyl-2-(methylamino)propyl)amino)-2-fluoro-N-(5-fluorothiazol-2-yl)benzenesulfonamide]	> 32
0.054	CN[C@H](CNc1cc(F)c(S(=O)(=O)Nc2ncc(F)s2)cc1Cl)CC12CC(C1)C2 [Ex2-13, (S)-4-((3-(bicyclo[1.1.1]pentan-1-yl)-2-(methylamino)propyl)-amino)-5-chloro-2-fluoro-N-(5-fluorothiazol-2-yl)-benzenesulfonamide]	> 611
0.17	CN[C@H](CNc1cc(F)c(S(=O)(=O)Nc2ncc(F)s2)cc1Cl)CC1(C(F)(F)F)CC1 [Ex2-14, (S)-5-chloro-2-fluoro-N-(5-fluorothiazol-2-yl)-4-((2-(methylamino)-3-(1-(trifluoromethyl)cyclopropyl)-propyl)amino)benzenesulfonamide]	–
0.67	CN[C@@H](CCC(C)(C)C)CNc1cc(F)c(S(=O)(=O)Nc2ncc(F)s2)cc1Cl [Ex2-15, (S)-5-chloro-4-((5,5-dimethyl-2-(methylamino)hexyl)amino)-2-fluoro-N-(5-fluorothiazol-2-yl)-benzenesulfonamide]	> 49
0.12	CN[C@H](CNc1cc(F)c(S(=O)(=O)Nc2nccs2)cc1Cl)CC1(C(F)(F)F)CC1 [Ex2-16, (S)-5-chloro-2-fluoro-4-((2-(methylamino)-3-(1-(trifluoromethyl)cyclopropyl)-propyl)amino)-N-(thiazol-2-yl)-benzenesulfonamide]	> 275
0.11	CN[C@H](CNc1cc(F)c(S(=O)(=O)Nc2ncc(F)s2)cc1Cl)CC1CC1(Cl)Cl (stereo partly drawn) [Ex2-21, 5-chloro-4-(((2S)-3-(2,2-dichlorocyclopropyl)-2-(methylamino)propyl)amino)-2-fluoro-N-(5-fluorothiazol-2-yl)-benzenesulfonamide]	–
0.15	CN(C)[C@H](CNc1cc(F)c(S(=O)(=O)Nc2ncc(F)s2)cc1Cl)CC1(C)CC1 [Ex7-3, (S)-5-chloro-4-((2-(dimethylamino)-3-(1-methylcyclopropyl)propyl)amino)-2-fluoro-N-(5-fluorothiazol-2-yl)benzenesulfonamide]	–

SMILES	IC50 [1] [µM]	ratio of Nav1.7 potency:Nav 1.5 potency [2]
CN[C@H](CNc1cc(F)c(S(=O)(=O)Nc2ncc(F)s2)cc1Cl)C[Si](C)(C)C [Ex2-17, (R)-5-chloro-2-fluoro-N-(5-fluorothiazol-2-yl)-4-((2-(methylamino)-3-(trimethylsilyl)propyl)-amino)benzenesulfonamide]	0.014	> 1929
